Reference: ChEMBL document CHEMBL3997793, “Discovery of peptidic miR-21 processing inhibitor by mirror image phage display: A novel method to generate RNA binding D-peptides” (Bioorg Med Chem Lett, 2017)
pEC50, pIC50: −log10 of the molar value.

Assays:
[1] = Binding affinity to synthetic 3'-biotin-labelled mirrored pre-miR-21 RNA by ELISA
[2] = Binding affinity to synthetic 3'-biotin-labelled pre-miR-21 RNA by ELISA
[3] = Binding affinity to synthetic 3'-biotin-labelled pre-miR-21 RNA assessed as inhibition of human recombinant Dicer-mediated pre-miR-21 processing by measuring reduction in mature miR-21 formation pretreated for 30 mins followed by dicer addition after 2 hrs by SYBR staining based PAGE analysis

## CC(C)[C@H](NC(=O)[C@H](C)NC(=O)[C@H](CCCNC(=N)N)NC(=O)[C@@H]1CSSC[C@H](NC(=O)[C@H](CCCNC(=N)N)NC(=O)CNC(=O)[C@@H]2CCCN2C(=O)CCCC[C@@H]2SC[C@@H]3NC(=O)N[C@@H]32)C(=O)N[C@@H](CCCCN)C(=O)N2CCC[C@H]2C(=O)N[C@@H](CCCCN)C(=O)N[C@@H](CCCNC(=N)N)C(=O)N[C@@H](CCCNC(=N)N)C(=O)N[C@@H](CCCNC(=N)N)C(=O)N[C@@H](CCCNC(=N)N)C(=O)N[C@@H](C)C(=O)N[C@@H]([C@@H](C)O)C(=O)N1)C(=O)O
[1]
  pEC50: 6.82
[2]
  pEC50: 5.13

## CC(C)[C@@H](NC(=O)[C@@H](C)NC(=O)[C@@H](CCCNC(=N)N)NC(=O)[C@H]1CSSC[C@@H](NC(=O)[C@@H](CCCNC(=N)N)NC(=O)CNC(=O)[C@H]2CCCN2C(=O)CCCC[C@@H]2SC[C@@H]3NC(=O)N[C@@H]32)C(=O)N[C@H](CCCCN)C(=O)N2CCC[C@@H]2C(=O)N[C@H](CCCCN)C(=O)N[C@H](CCCNC(=N)N)C(=O)N[C@H](CCCNC(=N)N)C(=O)N[C@H](CCCNC(=N)N)C(=O)N[C@H](CCCNC(=N)N)C(=O)N[C@H](C)C(=O)N[C@H]([C@H](C)O)C(=O)N1)C(=O)O
[3]
  pIC50: 6.27
[1]
  pEC50: 5.80
[2]
  pEC50: 6.36
